Experimental data published in patent publication US20240245805A1 (Orna Therapeutics, Inc., priority 2020, published 2024).
Where two headings read alike, the source gives them in different places.

Columns and labels:
[1] = cited from earlier work
1C1C7 cells [2] = test: 5′ UTR variants, GLuc in 1C1C7 cells; type: cell-based; conditions: CK IRES with 5′ UTR variants
From the text: This example describes modifications of circular RNAs by inserting 5′ UTR variants. […] 1C1C7 cells were transfected with the circular RNAs.

1C1C7 cells [3] = test: GLuc luminescence and functional stability by IRES, 1C1C7 cells
HEK293 cells = type: cell-based, human; conditions: circular RNA encoding Gluc with the listed IRES (UTR truncated to 675 nt) transfected into HEK293 cells; supernatant after 24 hours
[4] = Table 2, lipids of Formula (II)

For `CCCCCCCCCCCCC(CCCCCCCCCC)C(=O)OCCCCCCN(CCCCCCOC(=O)C(CCCCCCCCCC)CCCCCCCCCCCC)CCN(C)C` (stereo not drawn) [Lipid I-39], the pKa ([1]; Table 1, lipids of Formula I) is given as 6.82.

For `CCCCCCCCC(CCCCCC)CCCOC(=O)CCCCCN(CCCCCC(=O)OCC(CCCCCC)CCCCCCCC)CCN(C)C` (stereo not drawn) [Lipid I-22], the pKa ([1]; Table 1, lipids of Formula I) is listed as 6.53.

In the case of `CCCCCCCCC(CCCCCC)CCCOC(=O)CCCCCN(CCCCCC(=O)OCC(CCCCCC)CCCCCCCC)CCN(C)CC` (stereo not drawn) [Lipid I-33], the pKa ([1]; Table 1, lipids of Formula I) is listed as 6.27.

For “UTR3: 5′ UTR variant: "a higher-GC/structured spacer with a kozak sequence" (UTR3) (DNA CGAACTAGTATTCTTCTGGTCCCCACAGACTCAGAGAGAACCCGCCACC; 5' UTR segment within a circular RNA construct, further chemistry not given here)”, the translation (1C1C7 cells [2]) was “did not show the same benefit”.

In the case of “UTR2: 5′ UTR variant: canonical Kozak sequence with "a 36-nucleotide unstructured/low GC spacer sequence" added (UTR2) (DNA AATAAGAGAGAAAAGAAGAGTAAGAAGAAATATAAGAGCCACC; 5' UTR segment within a circular RNA construct, further chemistry not given here)”, the translation (1C1C7 cells [2]) is reported as “more effective”.

For `CCCCCCCCC(CCCC)COC(=O)CCCCCCCCC(CCCCCCCCC(=O)OCC(CCCC)CCCCCC)N(CCCN(C)C)C(=O)C(CC)CCCCC` (stereo not drawn) [II-35], the pKa [1, 4] is listed as 5.97.

For `CCCCCCCCC(=O)N(CCCN(C)C)C(CCCCCCCCC(=O)OCC(CCCC)CCCC)CCCCCCCCC(=O)OCC(CCCC)CCCCCC` (stereo not drawn) [II-9], the pKa [1, 4] is listed as 6.27.

B1: Salivirus A SZ-1 (nucleic acid)
DNA: TCTGTCCTCACCCCATCTTCCCTTCTTTCCTGCACCGTTACGCTTACTCGCATGTGCATTGAGTGGTGCACGTGCTTGAACAAACAGCTACACTCACATGGGGGCGGGTTTTCCCGCCCTGCGGCCTCTCGCGAGGCCCACCCCTCCCCTTCCTCCCATAACTACAGTGCTTTGGTAGGTAAGCATCCTGATCCCCCGCGGAAGCTGCTCACGTGGCAACTGTGGGGACCCAGACAGGTTATCAAAGGCACCCGGTCTTTCCGCCTTCAGGAGTATCCCTGCTAGTGAATTCTAGTAGGGCTCTGCTTGGTGCCAACCTCCCCCAAATGCGCGCTGCGGGAGTGCTCTTCCCCAACTCACCCTAGTATCCTCTCATGTGTGTGCTTGGTCAGCATATCTGAGACGATGTTCCGCTGTCCCAGACCAGTCCAGTAATGGACGGGCCAGTGTGCGTAGTCGTCTTCCGGCTTGTCCGGCGCATGTTTGGTGAACCGGTGGGGTAAGGTTGGTGTGCCCAACGCCCGTACTTTGGTGATACCTCAAGACCACCCAGGAATGCCAGGGAGGTACCCCGCTTCACAGCGGGATCTGACCCTGGGCTAATTGTCTACGGTGGTTCTTCTTGCTTCCACTTCTTTCTACTGTTCATG
modifications: source: /note="Description of Unknown: Salivirus A sequence"
With B1 the “luminescence at 24 hours” value (1C1C7 cells [3]) was “produced high luminescence”.

B2: PSIV (2x mut for Xbal) (nucleic acid)
DNA: GCAAAATGGGTACGTAGTTAACCACTGCGTATCAGGATTGCAGGCCACGAAGGGTATTTGCATATCTTTCTATGCGGTATTACGGCTTAAAACCCGTTGTATCTTGTTGTTTGACTGCCTGTATCACTAGTGGCCATTTTATTTAGGTTAGAGACCCCTGATAGTAGGAGAGTTACAAACTCTTTAAAAATTGTTGACCCCGGAAAAGATGGTGACCCCTGTAAGTAGTTGATCAAGAAGATCTATGCGCTGGCATAGTAATCCAGTGTTTCCTGTTTTAGGATGACCTCTGAAAGTAGATGACCGTGGAAAGTCACGTAGTGCCCCAATAAGCACGTTTGGGCAGCGTGCGCTATCACAAGGCTTGATCTCCGAGGAGCCCCTTGTTTTAGCTGGCTGGAAGCCAATGATCTTAAGTAGATAAGTGCTGTTGCTTGTAGTTCAACAGAAAGCTTTGAGTACGTCTTTCTTGCGAGAAAGAACACATGCATTCTTATGCTCTCAATTCTATTATTTTTATTTTGGGCGAAAGGAAAGCTCTCACGCGAGTACGAATAGCCAACCCTTTAT
modifications: lipid formulation
For B2, the “Expression (luminescence from secreted Gluc protein)” value (“Expression” below) (HEK293 cells) was 9.70E+04.

B3: EV D94 (nucleic acid, listed as Enterovirus sp.)
chain: CGTGGCGGCCAGTACTCTGGTATCACGGTACCTTTGTACGCCTGTTTTATATCCCCTTCCCCCGCAACTTAGAAGAAAACAAATCAAGTTCACTAGGAGGGGGTACAAACCAGTACCACCACGAACAAGCACTTCTGTTTCCCCGGTGATGTCGTATAGACTGTAACCACGGTTGAAAACGATTGATCCGTTATCCGCTCTTGTACTTCGAAAAGCCCAGTATCACCTTGGAATCTTCGATGCGTTGCGCTCAGCACTCAACCCCAGAGTGTAGCTTAGGTCGATGAGTCTGGACACTCCTCACCGGCGACGGTGGTCCAGGCTGCGTTGGCGGCCTACCTGTGGTCCAAAGCCACAGGACGCTAGTTGTGAACAAGGTGTGAAGAGCCTATTGAGCTACAAGAGAATCCTCCGGCCCCTGAATGCGGCTAATCCTAACCACGGAGCAAGGGTACACAAACCAGTGTATATCTTGTCGTAACGCGCAAGTCTGTGGCGGAACCGACTACTTTGGGTGTCCGTGTTTCCTTTTGTTTTTATCATGGCTGCTTATGGTGACAATCTAAGATTGTTATCATATAGCTGTTGGATTGGCCATCCGGTAATTTATTGAGATTTGAGCATTTGCTTGTTTCTTCAACAATTTCACCTATTCATTGCATTTCAGCAGTCAAA
modifications: lipid formulation
For B3, the “Expression” value (HEK293 cells) was 9.25E+07.

B4: EV 30 (nucleic acid, listed as Enterovirus sp.)
chain: AAGCAAGGCAAACCTGACCAATAGTAGGTGTGGCACACCAGCCGCATTTTGGTCAAGCACTTCTGTTTCCCCGGACCGAGTATCAATAAGCTGCTCACGCGGCTGAAGGAGAAACCGTTCGTTACCCGACCAGCTACTTCGAGAAACCTAGTAACACTATGAACGTTGCGGAGTGTTTCGTTCAGCACTTCCCCCGTGTAGATCAGGTCGATGAGTCACCGCATTCCTCACGGGTGACCGTGGCGGTGGCTGCGTTGGCGGCCTGCCTACGGGTTCGCCCGTAGGACGCTCTAATACCGACATGGTGTGAAGAGTCCATTGAGCTAGCTGGTAGTCCTCCGGCCCCTGAATGCGGCTAATCCTAACTGCGGAGCAGGTGCTCACAGACCAGTGAGTAGCCTGTCGTAACGGGCAACTCTGCAGCGGAACCGACTACTTTGGGTGTTTTTCCTTTTTTCTTCTCTTATATTGGCTGCTTATGGTGACAATTAAAGAATTGTTACCATATAGCTATTGGATTGGCCATCCGGTGACGAGCAGAGCCATTGTTTACCTCTTTGTTGGATTTGTACCTTTGAACCACAAAGTCTTGAATACCATTCATCTCATTTTAAAGTTCAACTCAGCTAAAAGAAA
modifications: lipid formulation
With B4 the “Expression” value (HEK293 cells) was 5.48E+06.

B5: EV C102 (nucleic acid, listed as Enterovirus sp.)
chain: CTTTGTACGCCTGTTTTACATCCCCTCCCCCACGTAACTTTAGAAGCAATTCAACAAGTTCAATAGAGGGGGTACAAACCAGTATCACCACGAACAAGCACTTCTGTTTCCCCGGTGATTTTACATAAGCTGTGCCCACGGCTGAAAGTGAATGATCCGTTACCCGCTCGAGTACTTCGAAAAGCCTAGTATCGCTTTGGGATCTTCGACGCGTTGCGCTCAGCACTCTACCCCGAGTGTAGCTTAGGCTGATGAGTCTGGGCATTCCCCATCGGCGACGATGGCCCAGGCTGCGTTGGCGGCCTACCCATGGCTAACGCCATGGGACGCTAGTTGTGAACAAGGTGTGAAGAGCCTATTGAGCTACTCGAGAGTCCTCCGGCCCCTGAATGCGGCTAATCCCAACCACGGATCAGGTGCCTCCAACCCAGGAGGTGGCCTGTCGTAACGCGCAAGTCTGTGGCGGAACCGACTACTTTGGGTGTCCGTGTTTCCTTTTATCTTTTAAATGGCTGCTTATGGTGACAATCATAGATTGTTATCATAAAGCGAATTGGATTGGCCATCCGGTGAAATACAAACACATTATTTACTTGTTTGTTGGATTTACTCCGCTCACACAGCTTACTCCTAAGATAATATTTATTGTATTGCTGGTAAGGAGACACTATTATA
modifications: lipid formulation
In the case of B5, the “Expression” value (HEK293 cells) is reported as 8.85E+07.
